According to patent US8946439B2, “Amide compounds, compositions and uses thereof” (Evotec AG, priority 2008, dated 2015):
Where two headings read alike, the source gives them in different places.

Key:
hP2X2/3H = molecular target: T1, hP2X2/3H (Homo sapiens, UniProt P56373+Q9UBL9); test: Calcium uptake assay (P2X antagonist assay), P2X2/3 heteromer; assay type: cell-based
T1 construct: expressed in transfected cells; host or cells: e.g. HEK293 or 1321N1
T1 sequence (Q9UBL9 1-471): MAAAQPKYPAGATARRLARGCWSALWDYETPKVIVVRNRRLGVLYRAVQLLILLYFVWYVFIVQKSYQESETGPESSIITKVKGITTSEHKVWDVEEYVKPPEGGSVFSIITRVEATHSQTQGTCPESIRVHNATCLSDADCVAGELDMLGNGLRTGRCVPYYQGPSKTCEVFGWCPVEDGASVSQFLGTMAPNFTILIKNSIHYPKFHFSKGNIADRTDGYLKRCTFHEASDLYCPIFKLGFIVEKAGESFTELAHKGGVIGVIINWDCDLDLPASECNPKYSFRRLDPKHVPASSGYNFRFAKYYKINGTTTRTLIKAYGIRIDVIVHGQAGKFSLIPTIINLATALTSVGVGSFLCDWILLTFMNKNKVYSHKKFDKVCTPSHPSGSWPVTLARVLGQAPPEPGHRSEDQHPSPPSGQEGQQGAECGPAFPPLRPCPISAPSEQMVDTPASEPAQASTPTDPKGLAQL
T1 sequence (P56373 1-397): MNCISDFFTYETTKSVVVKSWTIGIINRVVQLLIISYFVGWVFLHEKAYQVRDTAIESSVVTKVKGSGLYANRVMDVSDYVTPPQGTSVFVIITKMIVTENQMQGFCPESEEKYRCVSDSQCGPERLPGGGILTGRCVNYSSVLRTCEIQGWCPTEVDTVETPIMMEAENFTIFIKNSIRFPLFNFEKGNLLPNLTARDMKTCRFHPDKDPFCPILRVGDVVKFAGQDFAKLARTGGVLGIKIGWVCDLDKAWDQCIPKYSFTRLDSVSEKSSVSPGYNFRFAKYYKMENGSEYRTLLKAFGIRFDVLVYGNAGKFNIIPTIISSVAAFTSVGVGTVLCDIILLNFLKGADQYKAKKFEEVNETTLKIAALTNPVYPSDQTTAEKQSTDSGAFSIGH
Excerpt: (§1) The human P2X2/3 chimera clone is created as described by Neelands et al, and then cloned into an expression vector as above. Receptors are expressed in cells (e.g., HEK293 or 1321N1 (obtained from the ECACC)) via transient transfection using standard lipid mediated transfection, or by creation of stable transfectants for each receptor. For expression of the P2X2/3 heteromeric receptor, the P2X3 expression vector is stably transfected into a cell line already stably expressing P2X2. P2X2/3 heteromer function is isolated using pharmacological methods. Cell lines are maintained in DMEM+5% Glutamax, the appropriate level of selective antibiotic, and 10% heat inactivated FBS.
(§2) Functional activity of compounds at the P2X receptor is determined by measuring their ability to inhibit agonist-induced calcium influx. Compounds are tested for antagonist activity against the P2X2/3 chimera, the P2X3 homomer, or the P2X2/3 heteromer. At the start of each screening day, the agonist EC50 is determined. Compound % inhibition or IC50s are subsequently determined using a predetermined agonist concentration (EC50-90 depending on cell line) as a stimulus. The agonists used are αβMeATP, ATP, or other ATP analogs. Compounds may be tested at concentrations ranging from 1 pM to 10 μM.
(§3) To test for antagonist activity, cells expressing the appropriate receptor are seeded onto 96 or 384 well plates 18-24 hours prior to assay. […] Plates are incubated at 37° C. and then equilibrated at room temperature. Antagonism of agonist-induced calcium influx is measured using a fluorescent imaging plate reader (e.g. FLIPR^TETRA, Molecular Devices, Sunnyvale, Calif.). The assay comprises two stages: a pre-treatment phase followed by a treatment phase. Compounds may be tested as follows: For the pre-treatment phase, 50 μL of 3× concentration of test compound in HBSS is added to cells containing […], of dye loading media to achieve a final concentration of 1× test compound. For the treatment phase, at a set interval after pre-treatment (1-30 minutes), 50 μL of 1× test compound plus 4× agonist solution is added, resulting in a final concentration of 1× compound and 1× agonist. […] Responses are measured as (peak fluorescence after agonist addition) minus (baseline fluorescence prior to treatment). Percent inhibition is calculated as follows:
(§4) [formula] IC50 values are determined by analyzing dose response data in a 4 parameter logistic fit using GraphPad Prizm.

hP2X3 = molecular target: T2, hP2X3 (Homo sapiens, UniProt P56373); test: Calcium uptake assay (P2X antagonist assay), P2X3 homomer; assay type: cell-based
T2 construct: expressed in transfected cells; host or cells: e.g. HEK293 or 1321N1
T2 sequence (P56373 1-397): T1 sequence (P56373 1-397)
Excerpt: as §1, §2, §3, §4

[1] = Ca influx (calcium uptake assay), hP2X2/3H, read-out: IC50 hP2X2/3H
[2] = Ca influx (calcium uptake assay), hP2X3, read-out: IC50 hP2X3
[3] = calcium uptake assay, hP2X2/3H, read-out: IC50 hP2X2/3H (nM), Ca Influx
[4] = calcium uptake assay, hP2X3, read-out: IC50 hP2X3 (nM), Ca Influx

SMILES	IC50 (hP2X2/3H; [1])	IC50 (hP2X3; [2])	IC50 (hP2X2/3H; [3])	IC50 (hP2X3; [4])	further results
Cc1ccc(-c2cc(OC(C)CO)cc(C(=O)N[C@H](C)c3ccc(C)nc3)c2)nc1 (some centres unmarked) [Compound 345]	< 100 nM	< 100 nM	–	–	–
Cc1ccc(-c2cc(Oc3nc(C)cs3)cc(C(=O)N[C@H](C)c3ccc(C)nc3)c2)cc1 [Compound 381]	< 100 nM	< 100 nM	–	–	–
Cc1ccc(-c2cc(C(=O)N[C@H](CCO)c3ccc(C)nc3)cc(S(C)(=O)=O)c2)cc1 [Compound 205]	< 100 nM	< 100 nM	–	–	–
Cc1ccc(-c2cc(C(=O)NCc3cnc(C)nc3)cc(S(=O)(=O)C(C)C)c2)cc1 [Compound 201]	< 100 nM	< 100 nM	–	–	–
Cc1ccc(-c2cc(C(=O)NCc3ccc(C)nc3)cc(C(O)CN3CC4CN(C)CC4C3)c2)cc1 (centres unmarked) [Compound 399]	–	–	–	–	IC50 (hP2X2/3H; Ca influx, calcium uptake assay, read-out: IC50 hP2X2/3H): 501 to 1000 nM; IC50 (hP2X3; Ca influx, calcium uptake assay, read-out: IC50 hP2X3): 100 to 500 nM
Cc1ccc(-c2cc(Oc3ccccn3)cc(C(=O)N[C@H](C)c3ccc(C)nc3)c2)c(C#N)c1 [Compound 259]	< 100 nM	< 100 nM	–	–	–
Cc1ccc(-c2cc(C(=O)NCc3ccc(C(F)(F)F)nc3)cc(C(=O)N3CCCC3)c2)cc1 [Compound 47]	–	–	100 to 500 nM	100 to 500 nM	–
Cc1ccc(-c2cc(C(=O)N[C@@H](C)CO)cc(S(=O)(=O)C3CCCC3)c2)cc1 [Compound 282]	> 1000 nM	< 100 nM	–	–	–
Cc1ccc(-c2cc(Oc3nc4c(s3)CCCC4)cc(C(=O)N[C@H](C)c3ccc(C)nc3)c2)cc1 [Compound 393]	100 to 500 nM	100 to 500 nM	–	–	–
Cc1ccc(-c2cc(C(=O)N[C@H](C)c3cnc(C)nc3)cc(S(=O)(=O)CC(C)C)c2)cc1 [Compound 194]	–	–	< 100 nM	< 100 nM	–
Cc1ccc(-c2cc(Oc3ncccn3)cc(C(=O)NCc3ccc(C)nc3)c2)cc1 [Compound 233]	100 to 500 nM	100 to 500 nM	–	–	–
Cc1ccc(-c2cc(OCC3CCCO3)cc(C(=O)N[C@H](C)c3ccc(C)nc3)c2)c(C#N)c1 (some centres unmarked) [Compound 312]	< 100 nM	< 100 nM	–	–	–
[2H]C([2H])([2H])c1ccc(-c2cc(C(=O)NCc3ccc(C)nc3)cc(C(=O)N3CCCC3)c2)cc1 [Compound 203, 4′-Methyl-d3-N-((6-methylpyridin-3-yl)methyl)-5-(pyrrolidine-1-carbonyl)biphenyl-3-carboxamide]	< 100 nM	< 100 nM	–	–	–
Cc1ccc(-c2cc(OC3CNCC3O)cc(C(=O)N[C@H](C)c3ccc(C)nc3)c2)nc1 (some centres unmarked) [Compound 339]	100 to 500 nM	< 100 nM	–	–	–
Cc1ccc(-c2cc(C#N)cc(C(=O)NCc3ccc(C)nc3)c2)cc1 [Compound 153]	–	–	100 to 500 nM	100 to 500 nM	–

Continued, in another order:

IC50 (hP2X2/3H; [1])	IC50 (hP2X3; [2])	IC50 (hP2X2/3H; [3])	IC50 (hP2X3; [4])	SMILES	further results
> 1000 nM	100 to 500 nM	–	–	Cc1ccc(-c2cc(OC(F)(F)F)cc(C(=O)NCc3ccc(C)nc3)c2)nc1 [Compound 220, 3-(5-Methylpyridin-2-yl)-N-((6-methylpyridin-3-yl)methyl)-5-(trifluoromethoxy)benzamide]	–
–	–	< 100 nM	100 to 500 nM	CCOC(=O)c1cc(C(=O)NCc2ccc(C)nc2)cc(-c2ccc(C)cc2)c1 [Compound 88]	–
–	–	100 to 500 nM	100 to 500 nM	Cc1ccc(-c2cc(C(=O)NCc3ccc(C)nc3)cc(C(=O)N3CCC(N4CCOCC4)C3)c2)cc1 (centres unmarked) [Compound 86, 4′-Methyl-N-((6-methylpyridin-3-yl)methyl)-5-(3-morpholinopyrrolidine-1-carbonyl)biphenyl-3-carboxamide]	–
100 to 500 nM	< 100 nM	–	–	Cc1ccc(-c2cc(Oc3ncccn3)cc(C(=O)N[C@H](C)c3cnc(C)nc3)c2)cc1 [Compound 235]	–
–	–	501 to 1000 nM	100 to 500 nM	Cc1ccc(-c2cc(C(=O)NCc3ccc(C)nc3)cc(C(=O)N3CC[C@@H](N)C3)c2)cc1 [Compound 101]	–
< 100 nM	< 100 nM	–	–	COCC(CO)Oc1cc(C(=O)N[C@H](C)c2ccc(C)nc2)cc(-c2ccc(C)cc2)c1 (some centres unmarked) [Compound 323]	–
–	–	100 to 500 nM	100 to 500 nM	Cc1ccc(-c2cc(C(=O)NCc3ccc(C(F)(F)F)nc3)cc(S(C)(=O)=O)c2)cc1 [Compound 37, 4′-Methyl-5-(methylsulfonyl)-N-((6-(trifluoromethyl)pyridin-3-yl)methyl)biphenyl-3-carboxamide]	–
